Source: ChEMBL document CHEMBL5236633, “Multi-therapies Based on PARP Inhibition: Potential Therapeutic Approaches for Cancer Treatment” (J Med Chem, 2022)
One block for each molecule: values may come before it.

Experiments:
MDA-MB-231 [1] = experiment: Antiproliferative activity against human MDA-MB-231 cells assessed as cell growth inhibition incubated for 24 hrs by CCK-8 assay; assay type: functional, cell-based; conditions: MDA-MB-231, 24 h
[2] = target: Protein cereblon/Poly [ADP-ribose] polymerase 1 (Homo sapiens, UniProt P09874+Q96SW2); experiment: Protac activity at CRBN/PARP1 in human HeLa cells assessed as induction of PARP-1 degradation measured after 24 hrs by immunoblotting analysis; assay type: cell-based
Sequence of Protein cereblon/Poly [ADP-ribose] polymerase 1 (P09874 whole entry): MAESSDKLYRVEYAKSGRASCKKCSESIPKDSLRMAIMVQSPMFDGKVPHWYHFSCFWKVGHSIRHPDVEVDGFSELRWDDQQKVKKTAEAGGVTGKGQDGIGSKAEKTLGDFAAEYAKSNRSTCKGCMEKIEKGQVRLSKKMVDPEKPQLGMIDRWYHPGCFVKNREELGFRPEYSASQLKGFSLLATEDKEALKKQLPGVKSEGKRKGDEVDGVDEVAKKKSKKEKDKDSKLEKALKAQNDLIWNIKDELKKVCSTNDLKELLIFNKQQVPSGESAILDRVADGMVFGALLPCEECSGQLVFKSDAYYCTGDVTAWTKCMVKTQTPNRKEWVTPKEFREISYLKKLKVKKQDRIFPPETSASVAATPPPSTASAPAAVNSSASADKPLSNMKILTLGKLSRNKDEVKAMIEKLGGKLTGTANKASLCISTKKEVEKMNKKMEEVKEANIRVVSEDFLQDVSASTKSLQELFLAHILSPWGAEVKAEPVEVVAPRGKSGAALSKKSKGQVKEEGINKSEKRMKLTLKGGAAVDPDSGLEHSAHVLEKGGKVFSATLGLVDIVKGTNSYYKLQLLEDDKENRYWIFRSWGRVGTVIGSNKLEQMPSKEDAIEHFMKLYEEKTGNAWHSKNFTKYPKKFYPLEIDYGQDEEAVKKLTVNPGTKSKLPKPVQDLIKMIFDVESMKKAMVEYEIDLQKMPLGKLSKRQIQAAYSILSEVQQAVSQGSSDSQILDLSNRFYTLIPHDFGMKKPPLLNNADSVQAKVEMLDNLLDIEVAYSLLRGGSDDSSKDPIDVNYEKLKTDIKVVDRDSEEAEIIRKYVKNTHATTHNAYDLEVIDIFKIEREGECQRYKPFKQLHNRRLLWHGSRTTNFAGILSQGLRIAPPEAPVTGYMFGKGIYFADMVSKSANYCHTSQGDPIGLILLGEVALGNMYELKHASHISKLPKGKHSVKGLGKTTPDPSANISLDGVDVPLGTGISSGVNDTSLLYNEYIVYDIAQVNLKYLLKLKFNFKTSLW
Sequence of Protein cereblon/Poly [ADP-ribose] polymerase 1 (Q96SW2 whole entry): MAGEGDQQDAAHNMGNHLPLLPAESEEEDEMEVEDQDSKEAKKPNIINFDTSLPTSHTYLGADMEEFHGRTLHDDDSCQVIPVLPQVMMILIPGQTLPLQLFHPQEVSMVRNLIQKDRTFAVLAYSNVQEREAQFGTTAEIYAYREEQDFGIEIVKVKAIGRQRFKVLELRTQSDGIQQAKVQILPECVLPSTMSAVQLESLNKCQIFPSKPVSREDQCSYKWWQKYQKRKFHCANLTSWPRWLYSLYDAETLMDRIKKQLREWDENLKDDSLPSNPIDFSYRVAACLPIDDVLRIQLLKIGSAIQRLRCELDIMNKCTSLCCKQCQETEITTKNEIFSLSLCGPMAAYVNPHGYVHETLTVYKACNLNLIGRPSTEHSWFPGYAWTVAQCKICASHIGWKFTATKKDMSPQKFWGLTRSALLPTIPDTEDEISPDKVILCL

[3] = target: T1, Poly [ADP-ribose] polymerase 1 (Homo sapiens, UniProt P09874); experiment: Inhibition of PARP1 (unknown origin) incubated for 30 mins by fluorescence based analysis
T1 sequence (P09874 whole entry): as the sequence (P09874 whole entry) above

A549 [4] = experiment: Antiproliferative activity against human A549 cells assessed as cell growth inhibition; assay type: functional, cell-based
[5] = target: T1, Poly [ADP-ribose] polymerase 1; experiment: Inhibition of PARP1 (unknown origin)
A549 [6] = experiment: Antiproliferative activity against human A549 cells assessed as cell growth inhibition measured after 24 hrs by MTT assay; assay type: functional, cell-based; conditions: A549, 24 h
[7] = target: Epidermal growth factor receptor (Homo sapiens, UniProt P00533); experiment: Inhibition of EGFR (unknown origin)
Sequence of Epidermal growth factor receptor (P00533 whole entry): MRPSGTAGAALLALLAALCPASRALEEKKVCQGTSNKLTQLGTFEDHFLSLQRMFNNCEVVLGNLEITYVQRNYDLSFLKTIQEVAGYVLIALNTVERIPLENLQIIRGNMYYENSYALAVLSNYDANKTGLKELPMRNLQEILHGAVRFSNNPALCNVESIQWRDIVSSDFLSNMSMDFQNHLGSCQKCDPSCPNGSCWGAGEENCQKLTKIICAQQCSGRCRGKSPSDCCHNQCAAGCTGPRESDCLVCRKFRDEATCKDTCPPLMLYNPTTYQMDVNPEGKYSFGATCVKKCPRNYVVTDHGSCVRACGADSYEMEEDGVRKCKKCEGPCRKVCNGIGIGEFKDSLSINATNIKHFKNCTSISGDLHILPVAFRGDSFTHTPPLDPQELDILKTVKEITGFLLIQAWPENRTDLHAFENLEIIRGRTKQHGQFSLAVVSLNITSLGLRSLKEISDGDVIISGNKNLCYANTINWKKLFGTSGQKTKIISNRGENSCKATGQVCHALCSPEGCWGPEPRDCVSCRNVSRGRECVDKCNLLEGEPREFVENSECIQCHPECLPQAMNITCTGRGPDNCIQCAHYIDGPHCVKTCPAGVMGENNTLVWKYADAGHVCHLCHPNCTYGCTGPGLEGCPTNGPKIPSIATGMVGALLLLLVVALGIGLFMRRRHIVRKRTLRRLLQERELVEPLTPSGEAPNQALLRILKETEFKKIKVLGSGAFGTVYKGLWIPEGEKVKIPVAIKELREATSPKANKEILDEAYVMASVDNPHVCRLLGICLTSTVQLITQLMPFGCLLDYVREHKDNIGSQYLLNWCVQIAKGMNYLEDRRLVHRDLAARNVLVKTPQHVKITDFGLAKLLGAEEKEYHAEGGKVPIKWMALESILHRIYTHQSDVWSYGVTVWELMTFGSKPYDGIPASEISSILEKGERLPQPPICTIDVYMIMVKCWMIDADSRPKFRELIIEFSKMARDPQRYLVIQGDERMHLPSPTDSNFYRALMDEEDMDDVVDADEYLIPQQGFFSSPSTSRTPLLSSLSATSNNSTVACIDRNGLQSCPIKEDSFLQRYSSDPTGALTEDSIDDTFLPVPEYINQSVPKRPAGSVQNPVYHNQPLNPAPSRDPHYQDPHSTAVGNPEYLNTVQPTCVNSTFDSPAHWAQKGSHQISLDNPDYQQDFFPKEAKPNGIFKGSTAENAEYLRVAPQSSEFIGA

MDA-MB-436 = experiment: Antiproliferative activity against human BRCA1 -/- MDA-MB-436 cells assessed as cell growth inhibition; assay type: functional, cell-based
[8] = target: T2, Protein mono-ADP-ribosyltransferase PARP3 (Homo sapiens, UniProt Q9Y6F1); experiment: Inhibition of PARP3 (unknown origin)
T2 sequence (Q9Y6F1 whole entry): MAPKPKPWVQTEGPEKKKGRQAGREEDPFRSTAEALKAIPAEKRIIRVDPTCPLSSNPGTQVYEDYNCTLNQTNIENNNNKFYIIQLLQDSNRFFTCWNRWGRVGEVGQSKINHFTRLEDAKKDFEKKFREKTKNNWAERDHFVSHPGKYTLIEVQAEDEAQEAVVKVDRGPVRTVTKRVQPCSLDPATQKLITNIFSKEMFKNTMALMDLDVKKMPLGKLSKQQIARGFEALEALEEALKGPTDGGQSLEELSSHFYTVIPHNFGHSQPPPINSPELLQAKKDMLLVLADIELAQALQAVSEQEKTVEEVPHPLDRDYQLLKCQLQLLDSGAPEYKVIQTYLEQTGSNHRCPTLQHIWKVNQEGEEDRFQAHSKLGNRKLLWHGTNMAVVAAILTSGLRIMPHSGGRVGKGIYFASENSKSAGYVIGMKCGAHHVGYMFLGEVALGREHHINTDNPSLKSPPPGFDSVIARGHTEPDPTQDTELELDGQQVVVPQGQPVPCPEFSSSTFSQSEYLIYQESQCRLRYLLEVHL

[9] = target: T3, Protein mono-ADP-ribosyltransferase PARP16 (Homo sapiens, UniProt Q8N5Y8); experiment: Inhibition of PARP16 (unknown origin)
T3 sequence (Q8N5Y8 whole entry): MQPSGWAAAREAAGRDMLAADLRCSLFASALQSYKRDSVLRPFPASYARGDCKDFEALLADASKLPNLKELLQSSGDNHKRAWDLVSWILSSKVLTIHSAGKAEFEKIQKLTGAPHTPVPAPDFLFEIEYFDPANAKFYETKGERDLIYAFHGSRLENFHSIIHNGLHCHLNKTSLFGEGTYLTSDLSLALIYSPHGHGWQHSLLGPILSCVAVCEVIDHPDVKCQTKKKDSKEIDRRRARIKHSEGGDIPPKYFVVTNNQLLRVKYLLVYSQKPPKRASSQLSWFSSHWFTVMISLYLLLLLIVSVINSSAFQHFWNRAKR

MDA-MB-231 [10] = experiment: Antiproliferative activity against human MDA-MB-231 cells assessed as cell growth inhibition at 10 uM incubated for 24 hrs by CCK-8 assay relative to control; assay type: functional; design: scale not given: the % may be the effect or the level left
MDA-MB-231 [11] = experiment: Antiproliferative activity against human MDA-MB-231 cells assessed as cell growth inhibition incubated for 24 hrs in presence of nutlin-3 by CCK-8 assay; conditions: MDA-MB-231, 24 h

SMILES: CN(CCOCCOCCOCCOCCOCCOCCNc1cccc2c1C(=O)N(C1CCC(=O)NC1=O)C2=O)Cc1ccc(-c2[nH]c3cc(F)cc4c3c2CCNC4=O)cc1 (centres undefined)
DC50 [2]: 36 nM

SMILES: O=C(c1ccc(Cc2n[nH]c(=O)c3cccnc23)cc1)N1CCCC1
IC50 [3]: 36 nM

SMILES: Cc1nnc2n1N=C(c1ccccc1OCCNCCCNCCOc1ccccc1C1=Nn3c(C)nnc3SC1)CS2
IC50 [5]: 1.37 nM
IC50 [7]: 64.7 nM

SMILES: O=C1NCC(c2ccccn2)[C@@H](O)c2cc(Cl)c(Cl)cc21 (some centres undefined)
IC50 [8]: 74100 nM
IC50 [9]: 362 nM

SMILES: O=c1cc(-c2ccc(O)c(-c3c(O)cc(O)c4c(=O)cc(-c5ccc(O)cc5)oc34)c2)oc2cc(O)cc(O)c12 [AMENTOFLAVONE]
IC50 [5]: 198 nM

SMILES: NC(=O)c1cccc2cn(-c3ccc([C@@H]4CCCNC4)cc3)nc12 [NIRAPARIB]
IC50 (MDA-MB-231 [11]): 60900 nM
IC50 (MDA-MB-231 [1]): 33200 nM

Now from value to molecule, other results behind:

IC50 (MDA-MB-231 [1]): 28500 nM
SMILES: COc1ccc(C2=NC(c3ccc(Cl)cc3)C(c3ccc(Cl)cc3)N2C(=O)N2CCNC(=O)C2)c(OC(C)C)c1 (centres undefined)

IC50 (A549 [4]): 230 nM
IC50 [5]: 14.4 nM
SMILES: O=C1CN(Cc2cn(-c3ccccc3F)nn2)C2(CCCCC2)c2ccccc21

IC50 [5]: 19.9 nM
IC50 (A549 [6]): 2010 nM
SMILES: O=C1CCc2cc(-c3ccccc3F)ccc2C2(CCCCC2)N1

IC50 [3]: 25 nM
IC50 (MDA-MB-436): 1000 nM
SMILES: CC(c1nc2cccc(C(N)=O)c2[nH]1)N1CC(=O)N(c2cccc(C(F)(F)F)c2)C1=S (centres undefined)

IC50 (A549 [4]): 1890 nM
SMILES: O=C1CCN(Cc2cn(-c3ccccc3F)nn2)C2(CCCCC2)c2ccccc21

IC50 (MDA-MB-231 [1]): 8450 nM
SMILES: COc1ccc(C2=N[C@H](c3ccc(Cl)cc3)[C@H](c3ccc(Cl)cc3)N2C(=O)N2CCN(CC(=O)NCCOCCOCCOCCOCCn3cc(-c4ccc(-n5cc6cccc(C(N)=O)c6n5)cc4)nn3)C(=O)C2)c(OC(C)C)c1
Activity (MDA-MB-231 [10]): 70%
